The test system of the experiment is Vibrio parahaemolyticus. Put plainly: Use of fluorogenic protease substrate to detect Vibrio parahaemolyticus (cleavage by trypsin-like enzyme). The format is cell-based. The settings on record: Vibrio parahaemolyticus cells, 1 mM EDTA, 50 mM phosphate buffer pH 7.2, incubated overnight; with vs without cells. The protocol: Vibrio parahaemolyticus used in these experiments was a quality control strain for the Transport Swab System of Becton Dickinson Microbiology Systems (Cockeysville, Md.). It was purchased from American Tissue Culture Collection (ATCC accession no. 49398). Cells were grown at 37° C. in nutrient broth with 3 percent sodium chloride. Ten ml of overnight culture was centrifuged. Broth was disposed and 3 ml of assay buffer added (1 mM EDTA, 50 mM phosphate buffer at pH 7.2) containing 50 μl of dual labeled conjugate of formula I, 1000 dilution (see Example 1, procedure for making labeled peptide). To ensure complete cleavage the reaction mixture was incubated overnight. Fluorescence intensity of cuvettes with and without cells was measured, (tracings C and D, respectively).

For “TMR-Val-Pro-Arg-Gly-Lys-TMR (XPRGX; not fully specified; TMR dye at both ends) [T-VPRGK-T]”, the “change in fluorescence on cleavage by the trypsin-like enzyme” value is on record as “increase in fluorescence”.

For the origin of these results see patent US7256012B2, “Fluorogenic protease substrates based on dye-dimerization” (3M Innovative Properties Company, priority 1997, dated 2007).
